In US20110028509A1, “Sulfonamides” (MERCK SERONO SA, priority 2008, published 2011):

Legend:
Format in all cases: cell-based
CXCR3 [1] = target: T1, CXCR3 (Homo sapiens, UniProt P49682); experiment: Chemotaxis assay IP10, L1.2 recombinant cells expressing hCXCR3; conditions: L1.2 hCXCR3 cells, IP10 around 0.3 nM, 4 hours
T1 sequence (P49682 1-368): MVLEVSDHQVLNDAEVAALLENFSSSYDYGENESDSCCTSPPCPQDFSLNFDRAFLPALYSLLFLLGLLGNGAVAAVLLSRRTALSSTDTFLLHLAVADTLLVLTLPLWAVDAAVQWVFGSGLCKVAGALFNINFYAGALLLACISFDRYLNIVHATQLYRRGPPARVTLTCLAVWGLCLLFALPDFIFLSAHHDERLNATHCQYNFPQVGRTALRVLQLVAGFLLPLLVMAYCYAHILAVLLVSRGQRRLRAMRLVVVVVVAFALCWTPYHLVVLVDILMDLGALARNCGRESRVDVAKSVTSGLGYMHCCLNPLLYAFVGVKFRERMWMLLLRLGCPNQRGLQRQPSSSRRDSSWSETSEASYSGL
Method: (§1) Human CXCR3 cDNA was amplified by PCR from a human cells cDNA library (Clontech) and subcloned into pcDNA3.1 (Invitrogen). Murine pre-B L1.2 cells were transfected with hCXCR3-pcDNA3.1 and were grown at 37° C., 5% CO2 in RPMI 1640 medium (Invitrogen, USA) supplemented with 5% heat inactivated fetal calf serum (Cancerra, Australia), 2 mM glutamine (Invitrogen), 50 units ml−1 penicillin, 50 μml−1 streptomycin. Stable transfectant clonal populations were selected using 800 μg/ml geneticin.
L1.2 recombinant cells expressing the receptor hCXCR3 were maintained in culture in RPMI 1640 (invitrogen), 5% Foetal Bovine Serum (invitrogen), 2 mM glutamine(invitrogen), 50 u/ml penicillin/streptomycin (invitrogen), at 37° C.-5% CO2—in an H2O saturated incubator. In order to stimulate the expression of the receptor, cells were incubated overnight with 5 mM butyric acid (Sigma)
This mix of cells/compounds was then incubated at 37° C.-5% CO2—in an H2O saturated incubator during 30 minutes. Cells were then dispensed as a drop on each corresponding wells of the chemotaxis system. Cell migration was then induced at 37° C.-5% CO2—in an H2O incubator during 4 hours. Filters were then removed and cells that had migrated were transferred in a black plate (Costar). The plates were stored overnight at −80° C. Cell migration ratio was calculated using the cyquant dye (Molecular Probes-C7026).

CXCR3 [2] = target: T1, CXCR3; experiment: CXCR3 Ca2+ mobilization (FLIPR), stable hCXCR3-CHO cell line, I-TAC stimulated; parameters: host or cells: CHO cells stably expressing hCXCR3; conditions: hCXCR3-CHO cells, I-TAC 100 nM stimulated Ca2+ response; read-out: Ca-ITAC
Procedure, shortened: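 CHO cells stably expressing hCXCR3, grown 18 hours after plating, loaded with calcium indicator dye 60 minutes; compounds equilibrated 20 minutes at room temperature. Fluorescence change evoked by 100 nM I-TAC read on FLIPR; activity expressed as percent of I-TAC response without compound (100%).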

CXCR3 [3] = target: T1, CXCR3; experiment: Chemotaxis assay ITAC (CXCL11), L1.2-CXCR3 cells; parameters: expressed in transfected cells; conditions: 1 nM CXCL11 (I-TAC), 4 hours
Method: as §1
L1.2-CXCR3 cells were grown for 24 hours at 0.5×10^6 cells/ml in chemotaxis medium containing 5 mM butyric acid (Sigma). Compounds were on one hand mixed with 1 nM of CXCL11 (I-TAC) in phenol-red free RPMI 1640 (invitrogen) supplemented with 5% fetal bovine serum in presence of 1% DMSO. The CXCL11/compounds mixture was then added to lower chambers of chemotaxis 96 well microplates (neuroprobe), and framed filters ([…] pore size) were put on top of the lower chambers. Compounds were on the other hand mixed with L1.2 CXCR3 cells and incubated in chemotaxis medium at 1.5×10^6 cells/ml in presence of 1% DMSO at 37° C., 5% CO2 for 30 minutes. Cells/compounds mixture was then added on top of the frame filters and migration was performed at 37° C., 5% CO2 for 4 hours. The number of migrated cells in the bottom chamber was determined using the CyQuant GR dye (Molecular Probe), according to the manufacturer.

Structure (SMILES)	IC50 (CXCR3 [1]) [µM]	IC50 (CXCR3 [2]) [nM]	IC50 (CXCR3 [3]) [nM]
O=C(NCCc1cccc([N+](=O)[O-])c1)c1ccc(CN(Cc2ccccc2)S(=O)(=O)c2ccc(Cl)cc2)cc1 [Example 4, 4-({benzyl[(4-chlorophenyl)sulfonyl]amino}methyl)-N-[2-(3-nitrophenyl)ethyl]benzamide]	2.45	–	–
O=S(=O)(c1ccc(Cl)cc1)N(Cc1ccc(-c2nnn[nH]2)cc1)Cc1ccc(F)cc1F [Example 60, 4-chloro-N-(2,4-difluorobenzyl)-N-[4-(2H-tetrazol-5-yl)benzyl]benzenesulfonamide]	0.681	1450	–
O=C(NS(=O)(=O)Cc1cccc([N+](=O)[O-])c1)c1ccc(CN(Cc2ccccc2)S(=O)(=O)c2ccc(Cl)cc2)cc1 [Example 15, 4-({benzyl[(4-chlorophenyl)sulfonyl]amino}methyl)-N-[(3-nitrobenzyl)sulfonyl]benzamide]	2.42	–	–
O=C(NCC1CC1)c1ccc(CN(Cc2ccccc2)S(=O)(=O)c2ccc(Cl)nc2)cc1 [Example 37, 4-{[benzyl({[2-chloropyridine)l]sulfonyl)amino]methyl}-N(cyclopropylmethyl)benzamide]	0.328	3350	–
CCOc1ccc(S(=O)(=O)N(Cc2ccc(C(=O)N[C@H]3[C@@H]4CN(C(=O)OC(C)(C)C)C[C@@H]43)cc2)Cc2ccccn2)cc1 [Example 89, rac-6-(4-{[(4-Ethoxy-benzenesulfonyl)-pyridin-2-ylmethyl-amino]-methyl}-benzoylamino)-3-aza-bicyclo[3.1.0]hexane-3-carboxylic acid tert-butyl ester]	0.01	50	–
Cc1noc(C)c1CN(Cc1ccc(-c2nnn[nH]2)cc1)S(=O)(=O)c1ccc(Cl)cc1 [Example 58, 4-chloro-N-[(3,5-dimethylisoxazol-4-yl)methyl]-N-[4-(2H-tetrazol-5-yl)benzyl]benzene sulfonamide]	1.43	–	–
O=C(NCC1CC1)c1ccc(CN(Cc2ccccc2F)S(=O)(=O)c2ccc(Cl)cc2)cc1 [Example 29, 4-{[(4-Chloro-benzenesulfonyl)-(2-fluoro-benzyl)-amino]-methyl}-N-cyclopropyl methyl benzamide]	0.51	1000	–
O=S(=O)(c1ccc(Cl)cc1)N(Cc1ccc(F)cc1)Cc1ccc(-c2nnn[nH]2)cc1 [Example 22, 4-chloro-N-(4-fluorobenzyl)-N-[4-(1H-tetrazol-5-yl)benzyl]benzenesulfonamide]	2.56	–	–
O=S(=O)(c1ccc(Cl)cc1)N(Cc1ccc(Cl)cc1)Cc1ccc(-c2nnn[nH]2)cc1 [Example 25, 4-chloro-N-(4-chlorobenzyl)-N-[4-(1H-tetrazol-5-yl)benzyl]benzenesulfonamide]	0.882	–	–
O=C(NC[C@@H]1CCCO1)c1ccc(CN(Cc2ccccc2)S(=O)(=O)c2ccc(Cl)cc2)cc1 [Example 3, 4-({benzyl[(4-chlorophenyl)sulfonyl]amino}methyl)-N-[(2S)-tetrahydrofuran-2-ylmethyl]benzamide]	2.27	–	–
COc1ccc(CN(Cc2ccc(-c3nnn[nH]3)cc2)S(=O)(=O)c2ccc(Cl)cc2)cc1 [Example 24, 4-Chloro-N-(4-methoxy-benzyl)-N-[4-(1H-tetrazol-5-yl)-benzyl]-benzenesulfonamide]	0.885	–	–
COc1ccc(S(=O)(=O)N(Cc2ccc(C(=O)NCc3cccc(Cl)c3)cc2)Cc2cccnc2)cc1 [Example 9, N-(3-chlorobenzyl)-4-{[[(4-methoxyphenyl)sulfonyl](pyridin-3-ylmethyl)amino]methyl}benzamide]	1.15	–	–
C[C@@H](c1ccc(NC(=O)C2(c3ccccc3)CC2)cc1)N(Cc1ccccn1)S(=O)(=O)c1ccc(C#N)cc1 [Example 167]	–	250	1960
CC(=O)N1C[C@@H]2[C@H](C1)[C@H]2NC(=O)c1ccc(CN(Cc2ccccc2)S(=O)(=O)c2ccc(Cl)cc2)cc1 [Example 118]	–	3000	2610

Results, then the molecule that gave them:

IC50 (CXCR3 [1]) [µM]	IC50 (CXCR3 [2]) [nM]	IC50 (CXCR3 [3]) [nM]	Structure (SMILES)
0.36	4750	–	N#Cc1ccc(S(=O)(=O)N(Cc2ccc(C(=O)NCC3CC3)cc2)Cc2ccccn2)cc1 [Example 43]
0.207	175	–	O=C(NS(=O)(=O)Cc1cccc([N+](=O)[O-])c1)c1ccc(CN(Cc2ccccn2)S(=O)(=O)c2ccc(Cl)cc2)cc1 [Example 50, N-(3-nitrophenylmethanesulfonyl)-4-{[[(4-chlorophenyl)sulfonyl](pyridin-2-yl-methyl)amino]methyl}benzamide]
0.05	70	–	N#Cc1ccc(S(=O)(=O)N(Cc2ccc(C(=O)NCCc3cccc(Cl)c3)cc2)Cc2ccccn2)cc1 [Example 97]
1.29	–	–	O=S(=O)(c1ccc(Cl)cc1)N(Cc1ccc(-c2nnn[nH]2)cc1)Cc1cccc(Cl)c1 [Example 21, 4-chloro-N-(3-chlorobenzyl)-N-[4-(1H-tetrazol-5-yl)benzyl]benzenesulfonamide]
1.29	–	–	O=C(NCc1cccc(Cl)c1)c1ccc(CN(Cc2ccccc2)S(=O)(=O)c2ccc(Cl)cc2)cc1 [Example 1, 4-({benzyl[(4-chlorophenyl)sulfonyl]amino}methyl)-N-(3-chlorobenzyl)benzamide]
0.695	–	–	O=S(=O)(c1ccc(Cl)cc1)N(Cc1ccc(-c2nnc(O)o2)cc1)Cc1ccccn1 [Example 19, 4-chloro-N-[4-(5-hydroxy-1,3,4-oxadiazol-2-yl)benzyl]-N-(pyridin-2-ylmethyl)benzene sulfonamide]
0.47	–	–	O=S(=O)(c1ccc(Cl)cc1)N(Cc1ccc(-c2nnn[nH]2)cc1)Cc1ccccc1F [Example 20, 4-chloro-N-(2-fluorobenzyl)-N-[4-(1H-tetrazol-5-yl)benzyl]benzene sulfonamide]
3.67	–	–	O=S(=O)(c1ccc(Cl)cc1)N(Cc1ccc(-c2nnn[nH]2)cc1)Cc1ncco1 [Example 59, 4-chloro-N-(1,3-oxazol-2-ylmethyl)-N-[4-(2H-tetrazol-5-yl)benzyl]benzene sulfonamide]
1.46	–	–	COc1cccc(CN(Cc2ccc(-c3nnn[nH]3)cc2)S(=O)(=O)c2ccc(Cl)cc2)c1 [Example 23, 4-chloro-N-(3-methoxybenzyl)-N-[4-(1H-tetrazol-5-yl)benzyl]benzene sulfonamide]
3.87	–	–	COc1ccc(S(=O)(=O)NC(=O)c2ccc(CN(Cc3ccccn3)S(=O)(=O)c3ccc(Cl)cc3)cc2)cc1 [Example 14, 4-{[[(4-chlorophenyl)sulfonyl](pyridin-2-ylmethyl)amino]methyl}-N-[(4-methoxyphenyl)sulfonyl]benzamide]
–	4200	6810	N#Cc1cccc(CN(Cc2ccccn2)S(=O)(=O)c2ccc(Cl)cc2)c1 [Example 195]
–	150	94	NC(C(=O)Nc1ccc(CN(Cc2ccccn2)S(=O)(=O)c2ccc(Cl)cc2)cc1)c1ccccc1 (stereo not drawn) [Example 181]
–	1000	4800	N#Cc1ccc(S(=O)(=O)N(Cc2ccc([N+](=O)[O-])cc2)Cc2ccccn2)cc1 [Example 158]
–	500	160	CCOc1ccc(S(=O)(=O)N(Cc2ccc(C(=O)NC3(c4cccc(Cl)c4)CC3)cc2)Cc2ccccn2)cc1 [Example 124]
–	300	60	N#Cc1ccc(S(=O)(=O)N(Cc2ccc(C(=O)NC3(c4cccc(Cl)c4)CC3)cc2)Cc2ccccn2)cc1 [Example 123]
–	900	750	N#Cc1ccc(S(=O)(=O)N(Cc2ccc(C(=O)NCc3ccccn3)cc2)Cc2ccccn2)cc1 [Example 135]
